Results: patent US8809270B2, “Method for reducing cardiovascular morbidity and mortality in prediaetic patients and patients with type 2 diabetes” (priority 2003, dated 2014)

How the values were obtained:
[1] = test system: patients with various levels of fasting hypertriglyceridemia; assay: Two multicenter placebo-controlled AMARYL registration studies: lipid data; format: in vivo, human; design: Triglycerides % reduction from baseline / Non-HDL Cholesterol Total % reduction from baseline: concentration or dose not given beside the values; Triglycerides Baseline / Triglycerides Endpoint: unit not given beside the values
From the text: There is evidence from the literature that use of sulfonylurea (SU) as initial drug treatment of the type 2 patient with DDL exerts a weaker effect on reduction of hypertriglyceridemia, or on increasing HDL-C, than is seen with insulin, and/or that the effects are less durable. In order to compare the effects of Lantus LANTUS (insulin glargine) on fasting TG and non-HDL-C levels with oral agents from the sulfonylurea class, the glimepiride (Amaryl® AMARYL) database at Aventis was examined.

[2] = test system: type 2 diabetic patients already treated with other oral antidiabetic drugs; assay: Study 4014: lipid data, LANTUS versus rosiglitazone; format: in vivo, human; design: Triglycerides % reduction from baseline / Triglycerides % reduction from baseline, LANTUS-AVANDIA / Non-HDL Cholesterol Total % reduction from baseline: concentration or dose not given beside the values; Triglycerides Baseline / Triglycerides Endpoint: unit not given beside the values
abnormalities of DDL = settings: in vivo; cited from earlier work
[3] = test system: diabetic patients hospitalized with acute MI; settings: IV insulin-glucose infusion in-hospital followed by intensive chronic outpatient insulin, versus standard treatment; cited from earlier work
IGT = settings: statistically significant; cited from earlier work
[4] = after injection; cited from earlier work

CCC1=C(C)CN(C(=O)NCCc2ccc(S(=O)(=O)NC(=O)N[C@H]3CC[C@H](C)CC3)cc2)C1=O [AMARYL, glimepiride]
HDL Baseline ([1]; TG baseline range 200-500): 38 | HDL Endpoint ([1]; TG baseline range 200-500): 39 | Non-HDL Cholesterol Total % reduction from baseline ([1]; TG baseline range 200-500): 3% | Non-HDL Cholesterol Total Baseline ([1]; TG baseline range 200-500): 197 | Non-HDL Cholesterol Total Endpoint ([1]; TG baseline range 200-500): 191 | Triglycerides % reduction from baseline ([1]; TG baseline range 200-500): 12% | Triglycerides Baseline ([1]; TG baseline range 200-500): 299 | Triglycerides Endpoint ([1]; TG baseline range 200-500): 265 | HDL Baseline ([1]; TG baseline range 300-500): 36 | HDL Endpoint ([1]; TG baseline range 300-500): 37 | Non-HDL Cholesterol Total % reduction from baseline ([1]; TG baseline range 300-500): 3% | Non-HDL Cholesterol Total Baseline ([1]; TG baseline range 300-500): 203 | Non-HDL Cholesterol Total Endpoint ([1]; TG baseline range 300-500): 198 | Triglycerides % reduction from baseline ([1]; TG baseline range 300-500): 18% | Triglycerides Baseline ([1]; TG baseline range 300-500): 390 | Triglycerides Endpoint ([1]; TG baseline range 300-500): 321 | HDL Baseline ([1]; TG baseline range 300-1000): 36 | HDL Endpoint ([1]; TG baseline range 300-1000): 37 | Non-HDL Cholesterol Total % reduction from baseline ([1]; TG baseline range 300-1000): 5% | Non-HDL Cholesterol Total Baseline ([1]; TG baseline range 300-1000): 209 | Non-HDL Cholesterol Total Endpoint ([1]; TG baseline range 300-1000): 198 | Triglycerides % reduction from baseline ([1]; TG baseline range 300-1000): 23% | Triglycerides Baseline ([1]; TG baseline range 300-1000): 459 | Triglycerides Endpoint ([1]; TG baseline range 300-1000): 350 | HDL Baseline ([1]; TG baseline range 500-1000): 37 | HDL Endpoint ([1]; TG baseline range 500-1000): 39 | Non-HDL Cholesterol Total % reduction from baseline ([1]; TG baseline range 500-1000): 10% | Non-HDL Cholesterol Total Baseline ([1]; TG baseline range 500-1000): 224 | Non-HDL Cholesterol Total Endpoint ([1]; TG baseline range 500-1000): 200 | Triglycerides % reduction from baseline ([1]; TG baseline range 500-1000): 33% | Triglycerides Baseline ([1]; TG baseline range 500-1000): 662 | Triglycerides Endpoint ([1]; TG baseline range 500-1000): 445 | LDL Baseline ([1]; TG baseline range All): 142 | LDL Endpoint ([1]; TG baseline range All): 140

CN(CCOc1ccc(CC2SC(=O)NC2=O)cc1)c1ccccn1 (stereo not shown) [AVANDIA, rosiglitazone]
HDL Baseline ([2]; TG baseline range 200-500): 38 | HDL Endpoint ([2]; TG baseline range 200-500): 40 | LDL Baseline ([2]; TG baseline range 200-500): 99 | LDL Endpoint ([2]; TG baseline range 200-500): 129 | Non-HDL Cholesterol Total Endpoint ([2]; TG baseline range 200-500): 59 | Triglycerides % reduction from baseline ([2]; TG baseline range 200-500): 0.1% | Triglycerides Baseline ([2]; TG baseline range 200-500): 294 | Triglycerides Endpoint ([2]; TG baseline range 200-500): 291 | HDL Baseline ([2]; TG baseline range 300-500): 38 | HDL Endpoint ([2]; TG baseline range 300-500): 41 | Non-HDL Cholesterol Total % reduction from baseline ([2]; TG baseline range 300-500): −17% | Non-HDL Cholesterol Total Baseline ([2]; TG baseline range 300-500): 177 | Non-HDL Cholesterol Total Endpoint ([2]; TG baseline range 300-500): 207 | Triglycerides % reduction from baseline ([2]; TG baseline range 300-500): 9% | Triglycerides Baseline ([2]; TG baseline range 300-500): 376 | Triglycerides Endpoint ([2]; TG baseline range 300-500): 341 | HDL Baseline ([2]; TG baseline range 500-1000): 39 | HDL Endpoint ([2]; TG baseline range 500-1000): 38 | Non-HDL Cholesterol Total Baseline ([2]; TG baseline range 500-1000): 231 | Non-HDL Cholesterol Total Endpoint ([2]; TG baseline range 500-1000): 261 | Triglycerides Baseline ([2]; TG baseline range 500-1000): 572 | Triglycerides Endpoint ([2]; TG baseline range 500-1000): 649 | effect on DDL parameters compared with LANTUS ([2]; in vivo): significantly inferior | effects on the abnormalities of DDL (abnormalities of DDL): almost no effect

insulin: IV insulin-glucose infusion followed by intensive chronic outpatient treatment with insulin (DIGAMI study)
reduction of all-cause mortality [3]: 28%

CN(C)C(=N)N=C(N)N [Metformin]
reduction in the rate of progression to type 2 DM (IGT): 31%

NPH insulin: a moderate- to long-acting insulin with a pronounced peak in plasma activity
time of pronounced peak in plasma activity / peak effect after injection [4]: 3 to 6 h
